The target of the experiment is T1, NMA1982 (Neisseria meningitidis, UniProt A1KVD0).
T1 construct: gene NMC1647
Description: biochemical.

SMILES strings stand for the structures.

T1 sequence (A1KVD0 entry or part of it): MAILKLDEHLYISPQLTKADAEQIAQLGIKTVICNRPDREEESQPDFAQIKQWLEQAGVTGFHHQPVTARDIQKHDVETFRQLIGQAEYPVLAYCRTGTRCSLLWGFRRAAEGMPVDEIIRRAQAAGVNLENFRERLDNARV

`[O]=[V]([OH])([OH])[OH]` [sodium orthovanadate] gave an IC50 of 161 µM.

In general, IC50 refers to the concentration at which inhibition is half-maximal.

The values are drawn from publication PMC10491346, “Enzyme Mechanistic Studies of NMA1982, a Protein Tyrosine Phosphatase and Potential Virulence Factor in Neisseria meningitidis” (Research Square, 2023).
